Patent US11723897B2, “Fatty acids as anti-inflammatory agents” (University of Pittsburgh—Of the Commonwealth System of …, priority 2009, dated 2023)
Entries after “also recorded” stand apart in the source; their conditions may differ. Like-named read-outs stand apart in the source and are kept apart here.

Experiments:
[1] = system: EFAD formation in RAW264.7 cells; experiment: Inhibitor study: EFAD formation in RAW264.7 cells activated with Kdo2 and IFNγ; format: cell-based, murine; settings: for Effect of inhibitor on EFAD-1 formation / Effect of inhibitor on EFAD-2 formation / Effect of inhibitor on EFAD-3 formation / Effect of inhibitor on EFAD-4 formation / Effect of inhibitor on EFAD-6 formation / Effect of inhibitor on EFAD-5 formation: RAW264.7 + Kdo2 + IFNγ, ↓ decrease, ↑ increase, NE (not defined in patent)
RAW264.7 cells [2] = experiment: Fatty acid supplementation study in activated RAW264.7 cells; format: cell-based, murine; settings: 32 μM fatty acid for 3 days, then Kdo2 + IFNγ, 20 h
Method: (a) A characteristic BME electrophile adduct fragmentation pattern. showing the major neutral loss of 78 amu (corresponding to the loss of BME) is represented by the enhanced product ion analysis of EFAD-2. (b) RAW264.7 cells were grown for 3 days in DMEM and 10% FBS supplemented with 32 μM of the indicated fatty acid. On the third day cells were activated with Kdo2 (0.5 μg/ml)) and IFNγ (200 U/ml) and EFAD-2 levels were quantified 20 h post activation. (c) Diagram of NaBH4 reduction of oxo-group to an alcohol group. (d) MRM scans monitoring for the mlz transition of 343.2/299.2 (oxo-DPA losing CO2) in RAW264.7 cell lysates purified for EFAD-2, non-treated or treated with NaBH4 (upper and lower panel); MRM scans monitoring for the mlz transition of [345.2/327.2 (hydroxy-DPA/neutral loss of H20) in RAW264.7 cell lysates purified for EFAD-2 and treated with NaBH4. (e) MS/MS fragmentation of EFAD-2 purified from activated RAW 264.7 cells and reduced with NaBH4.
FIG. 16a-16b illustrates that EFAD-1 and -3 are derived from the n-3 series of fatty acids. RAW264.7 cells were grown for 3 days in DMEM and 10% FBS supplemented with 32 μM of the indicated fatty acid. On the third day cells were activated with Kdo2 Lipid A (0.5 μg/ml) and IFNγ (200 U/ml) and EFAD-1 and -3 levels were quantified 20 h post activation.
Similarly, the EFAD of DHA (EFAD-1) and the EFAD of DTA (EFAD-3), were identified as mono-oxygenated derivatives of a 22-carbon fatty acid with a total of six and four double bonds, respectively. To elucidate the precursors in vivo, fatty acid supplementation studies were performed. […] Moreover, as illustrated in FIG. 4 EFAD-2 formation is COX-2 dependent.

[3] = system: Nrf2-dependent anti-oxidant response pathway; experiment: Nrf2 nuclear accumulation and HO-1/Nqo1 expression (western blot) in RAW264.7 cells; format: cell-based, murine; settings: for Nrf2 nuclear accumulation: nuclear extracts, 1 h after treatment; for Expression of HO-1 and Nqo1: western blot, 18 h after treatment
RAW264.7 cells [4] = experiment: Cytokine levels (IL-6, MCP-1, IL-10) in Kdo2+IFNγ-activated RAW264.7 cells; format: cell-based, murine
rabbit GAPDH = rabbit GAPDH (Oryctolagus cuniculus, UniProt P46406); experiment: In vitro reaction of GAPDH with EFAD (mass spectrometry); format: binding; settings: Cys244, Cys149, His163, His328
Method: FIG. 21a-21h illustrates the mass spectrometric analysis of an in vitro reaction of GAPDH with EFAD-2. Four residues were detected and confined as being targets for EfAD-2 in treated rabbit GAPDH. The peptides were alkylated as Cys244 (a), His163 (b), Cys149 (c) and His328 (d). Upper panels show EFAD-2 modified peptides and lower panels show spectra from corresponding native peptide.
To more specifically test the binding of EFADs to nucleophilic residues in proteins, we tested whether GAPDH was alkylated by EFADs. This enzyme is a well-characterized target for electrophiles and becomes easily inactivated by nitrosylation, oxidation or nucleophilic addition.

[5] = system: inducible nitric oxide synthase (iNOS); experiment: Nitrite, iNOS and Cox-2 levels in Kdo2+IFNγ-activated RAW264.7 cells; format: cell-based, murine; settings: for iNOS induction and accumulation of nitrite in the cell media: RAW264.7
Method: FIG. 11a-11e illustrates modulation of anti-oxidant and inflammatory responses by 17-oxoDHA and 17-oxoDPA. RAW264.7 cells were treated with increasing concentration of 17-oxoDHA and 17-oxoDPA. (a) Cells were harvested 1 h after treatment and Nrf2 levels were quantified in nuclear extracts. (b) Cells were harvested 18 h after treatment and HO-1 and Nqo1 (upper band) levels were measured by western blot. (c, d) RAW264.7 cells were treated with increasing concentration of 17-oxoDHA and 17-oxoDPA for 6 h and Kdo2+IFNγ were added. Samples were collected at 12 h. IL-6, MCP-1 and IL-10 levels were measured in the cell media by Quantikine ELISA Kit (R&D Systems) and normalized by the total protein content (c); Nitrite levels were measured in the cell media and normalized by the total protein content and iNOS and Cox-2 levels were measured in total cell lysates (d); (e) PPARγ beta-lactamase reporter assays were performed for Rosiglitazone, 17-OxoDPA, 17-OxoDHA, 15d-PGJ2, 17-hydroxyDHA, DPA, and DHA with concentrations ranging from 0.5-10,000 nM.
For activation experiments RAW 264.7 cells were seeded, incubated overnight, and treated at approximately 80% confluence with the indicated compounds 47. Non-activated controls were treated with vehicle alone. During activation, cells were maintained in an activation medium (SMEM) of Minimum Essential Medium Eagle (Cellgro, 17-305)+2% FBS supplemented with L-glutamine (584 mg/L), Na-pyruvate (110 mg/L) and Hepes (3.57 g/L, pH 7.4). For inhibition studies, inhibitors were added to the medium at the time of activation and MTT assays were used to confirm cell viability. Cells were harvested 20 h post activation (unless otherwise indicated) in 50 mM phosphate buffer (pH 7.4) and snap frozen in liquid N2. THP-1 cells were differentiated with PMA (86 nM) for 16 h, activated with IFNγ (200 U/ml) and Kdo2 lipid A (0.5 μg/ml) in RPMI+2% FBS and harvested 40 h after differentiation. For treatment with EFADs alone, 17-oxoDHA and 17-oxoDPA were added to cell culture media at the indicated concentrations and for the indicated time period. For treatment with EFADs coupled with pro-inflammatory stimulation, addition of 17-oxoDHA and 17-oxoDPA was followed by addition of Kdo2 and IFNγ at 6 h.
Protein concentrations of samples were measured by BCA assay (Pierce). The following primary antibodies were used: Nrf2 (Santa Cruz, sc-722), HO-1 (Assay Design, SPA-896), Nqo1 (Abcam, ab34173), Cox-2 (Santa Cruz, sc-1745), iNOS (BD Transduction Lab, 610332), Lamin B1 (Abcam, ab16048). Actin (detected by Sigma A2066) was used as loading control. […]
Total nitrite and nitrate concentration was measured in cell culture media by Griess reaction using the Nitrate/Nitrite Colorimetric Assay Kit (Cayman Chemical).

[6] = MK886 500 nM, ETYA 25 μM, OKA 50 nM, indomethacin 25 μM, diclofenac 1 μM, NS-398 4 μM, 20 h
[7] = Mus musculus, RAW264.7, genistein 25 μM, MAFP 25 μM, ibuprofen 100 μM, 20 h, read-out: Inhibition of EFAD production

Sequence of rabbit GAPDH (P46406 whole entry): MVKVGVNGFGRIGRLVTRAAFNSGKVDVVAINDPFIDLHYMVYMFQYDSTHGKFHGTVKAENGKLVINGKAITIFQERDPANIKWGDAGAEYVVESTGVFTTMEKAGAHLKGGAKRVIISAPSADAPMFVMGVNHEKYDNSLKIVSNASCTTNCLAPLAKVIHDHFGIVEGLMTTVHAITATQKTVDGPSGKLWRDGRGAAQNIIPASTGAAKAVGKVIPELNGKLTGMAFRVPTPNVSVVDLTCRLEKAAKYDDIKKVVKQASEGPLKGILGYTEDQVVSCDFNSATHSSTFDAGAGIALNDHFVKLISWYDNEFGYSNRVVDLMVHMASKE

SMILES | Effect on EFAD formation (in words) [1, 6] | Effect of inhibitor on EFAD-1 formation ([1]; 20 h) | Effect of inhibitor on EFAD-2 formation ([1]; 20 h) | Effect of inhibitor on EFAD-3 formation ([1]; 20 h) | Effect of inhibitor on EFAD-4 formation ([1]; 20 h) | Effect of inhibitor on EFAD-6 formation ([1]; 20 h) | Effect of inhibitor on EFAD-5 formation ([1]; 20 h) | other results
CS(=O)(=O)Nc1ccc([N+](=O)[O-])cc1OC1CCCCC1 [NS-398] | abolished | – | – | – | – | – | – | –
CC(C)Cc1ccc(C(C)C(=O)O)cc1 (racemic) [Ibuprofen] | – | ↓ | ↓ | ↓ | ↓ | ↓ | – | inhibition at 100 µM [1, 7]: > 80%; Effect of inhibitor on EFAD-1 formation ([1]; 20 h, listed as ibuprofen): no significant effect
CC/C=C\C/C=C\C/C=C\CCCCCCCC(=O)O [α-linolenic acid] | – | – | – | – | – | – | – | EFAD-2 formation after fatty acid supplementation (RAW264.7 cells [2]): significantly increased
COc1ccc2c(c1)c(CC(=O)O)c(C)n2C(=O)c1ccc(Cl)cc1 [Indomethacin] | completely abolish | ↓ | ↓ | ↓ | ↓ | ↓ | ↓ | –
CC/C=C\CC(=O)C=C/C=C\C/C=C\C/C=C\CCCCCC(=O)O [17-oxoDPA, 17-oxo-(7Z,10Z,13Z,15A,19Z)-docosa-7,10,13,15,19-pentanoic acid] | – | – | – | – | – | – | – | Nrf2 nuclear accumulation [3]: promoted dose-dependent; also recorded: promoting nuclear accumulation of Nrf2; Expression of HO-1 and Nqo1 [3]: promoted dose-dependent; also recorded: promoting; IFNγ and LPS-induced cytokine production (RAW264.7 cells [4]): inhibited IFNγ and LPS-induced cytokine production in a dose-dependent manner; Adduct formation with GAPDH residues (rabbit GAPDH): covalently bind Cys and His residues; Reduction of nitrite production ([5]; 25 μM): ~70%; iNOS induction and accumulation of nitrite in the cell media [5]: dose-dependent inhibition
CC(C)c1ccc2c(c1)c(SC(C)(C)C)c(CC(C)(C)C(=O)O)n2Cc1ccc(Cl)cc1 [MK886] | no significant effect | – | – | – | – | – | – | –
C=C1[C@@H](O)[C@@H]2O[C@]3(CC[C@H](/C=C/[C@@H](C)[C@@H]4CC(C)=C[C@@]5(O[C@H](C[C@@](C)(O)C(=O)O)CC[C@H]5O)O4)O3)CC[C@H]2O[C@@H]1[C@@H](O)C[C@H](C)[C@H]1O[C@@]2(CCCCO2)CC[C@H]1C [OKA, okadaic acid] | – | – | – | – | – | – | – | Effect on EFAD formation (in words) [1]: slight increase
O=c1c(-c2ccc(O)cc2)coc2cc(O)cc(O)c12 [genistein] | – | ↓ | ↓ | ↓ | ↓ | ↓ | ↓ | inhibition at 25 µM [1, 7]: > 50%
O=C(O)Cc1ccccc1Nc1c(Cl)cccc1Cl [Diclofenac] | completely abolish | ↓ | ↓ | ↓ | ↓ | ↓ | ↓ | –
CCCCCC#CCC#CCC#CCC#CCCCC(=O)O [ETYA, Eicosatetraynoic acid] | strongly inhibit | ↓ | ↓ | ↓ | ↓ | ↓ | ↓ | –
CC/C=C\CC(=O)C=C/C=C\C/C=C\C/C=C\C/C=C\CCC(=O)O [17-oxoDHA, 17-oxo-(4Z,7Z,10Z,13Z,15A,19Z)-docosa-4,7,10,13,15,19-hexanoic acid] | – | – | – | – | – | – | – | Nrf2 nuclear accumulation [3]: promoted dose-dependent; also recorded: promoting nuclear accumulation of Nrf2; Expression of HO-1 and Nqo1 [3]: promoted dose-dependent; also recorded: promoting; IFNγ and LPS-induced cytokine production (RAW264.7 cells [4]): inhibited IFNγ and LPS-induced cytokine production in a dose-dependent manner; Adduct formation with GAPDH residues (rabbit GAPDH): covalently bind Cys and His residues; Reduction of nitrite production ([5]; 20 μM): ~70%; iNOS induction and accumulation of nitrite in the cell media [5]: dose-dependent inhibition
CC/C=C\C/C=C\C/C=C\C/C=C\C/C=C\CCCC(=O)O [EPA, (5Z,8Z,11Z,14Z,17Z)-eicosa-5,8,11,14,17-pentanoic acid] | – | – | – | – | – | – | – | EFAD-2 formation after fatty acid supplementation (RAW264.7 cells [2]): significantly increased
CC/C=C/C/C=C/C/C=C/C/C=C\C/C=C/C/C=C/CCC(=O)O [DHA, (4E,7E,10Z,13E,16E,19E)-docosa-4,7,10,13,16,19-hexanoic acid] | – | – | – | – | – | – | – | EFAD-1 formation after fatty acid supplementation (RAW264.7 cells [2]): increased; EFAD-2 formation after fatty acid supplementation (RAW264.7 cells [2]): did not increase
